According to paper PMC6864762, “Angiotensin-I-Converting Enzyme Inhibitory Activity of Coumarins from Angelica decursiva” (Molecules, 2019):

Columns and labels:
ACE [1] = biological target: T1, ACE (Oryctolagus cuniculus, UniProt P12822); assay: ACE inhibitory activity assay with FAPGG as substrate; conditions: for Inhibitory effect on ACE (in words): structure–activity discussion of Table 2
T1 sequence (P12822 34-1310): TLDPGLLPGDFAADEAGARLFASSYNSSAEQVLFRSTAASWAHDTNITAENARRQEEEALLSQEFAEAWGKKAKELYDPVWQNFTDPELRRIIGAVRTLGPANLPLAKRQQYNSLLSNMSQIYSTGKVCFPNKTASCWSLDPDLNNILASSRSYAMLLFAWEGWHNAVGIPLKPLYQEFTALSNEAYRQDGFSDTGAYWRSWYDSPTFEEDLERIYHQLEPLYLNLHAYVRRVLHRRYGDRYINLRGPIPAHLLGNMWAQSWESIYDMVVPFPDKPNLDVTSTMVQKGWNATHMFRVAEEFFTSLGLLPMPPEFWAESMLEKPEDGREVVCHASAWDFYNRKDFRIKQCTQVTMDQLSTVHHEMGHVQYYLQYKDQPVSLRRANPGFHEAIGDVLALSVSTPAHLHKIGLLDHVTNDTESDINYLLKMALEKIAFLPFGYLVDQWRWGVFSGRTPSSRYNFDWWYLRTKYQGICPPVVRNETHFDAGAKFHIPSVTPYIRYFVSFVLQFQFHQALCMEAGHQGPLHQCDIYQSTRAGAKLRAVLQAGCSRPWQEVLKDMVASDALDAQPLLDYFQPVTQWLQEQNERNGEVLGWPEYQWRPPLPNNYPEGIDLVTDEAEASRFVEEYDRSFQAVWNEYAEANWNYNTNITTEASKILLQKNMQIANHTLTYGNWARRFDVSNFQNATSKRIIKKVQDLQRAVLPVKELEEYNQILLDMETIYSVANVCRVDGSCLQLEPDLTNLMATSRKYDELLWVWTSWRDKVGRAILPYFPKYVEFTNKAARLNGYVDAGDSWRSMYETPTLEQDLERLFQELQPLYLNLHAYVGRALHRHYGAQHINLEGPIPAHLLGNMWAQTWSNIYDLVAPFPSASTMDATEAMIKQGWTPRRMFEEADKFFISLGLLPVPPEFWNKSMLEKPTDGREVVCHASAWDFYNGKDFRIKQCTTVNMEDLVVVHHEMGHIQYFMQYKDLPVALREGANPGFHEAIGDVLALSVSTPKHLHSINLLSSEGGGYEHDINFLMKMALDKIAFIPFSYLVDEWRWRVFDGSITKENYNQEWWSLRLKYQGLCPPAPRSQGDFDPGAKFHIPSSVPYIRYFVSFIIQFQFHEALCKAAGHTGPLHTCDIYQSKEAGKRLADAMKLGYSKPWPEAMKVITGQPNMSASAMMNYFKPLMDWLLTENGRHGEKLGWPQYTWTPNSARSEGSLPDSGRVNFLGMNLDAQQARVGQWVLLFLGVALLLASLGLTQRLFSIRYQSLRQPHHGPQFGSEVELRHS
Method: The ACE inhibitory activity of 18 compounds was conducted according to Hyun et al. [8] and modified to use FAPGG as the substrate. In brief, FAPGG (0.5 mM) and various concentrations of the samples were completely dissolved in 50 mM Tris–HCl buffer (pH 7.5).

ACE [2] = test system: ACE; parameters: method as in earlier work; conditions: ref 25 (Hyun et al.); cited from earlier work
ACE [3] = biological target: T1, ACE; assay: Enzyme kinetics of ACE inhibition (Lineweaver–Burk and secondary plots); format: biochemical, rabbit; parameters: ACE (1 Unit, rabbit lung); purchased Sigma Chemical Company (St Louis, MO, USA); host or cells: rabbit lung (tissue-derived); conditions: for Type of Inhibition: Lineweaver–Burk plot and secondary plot, FAPGG 0.1–0.5 mM; for Ki: from secondary plot of slope (Km,app/Vmax,app) versus inhibitor
Method: All chemicals and solvents used for column chromatography were of reagent grade and purchased from commercial sources, unless otherwise stated.
To determine the inhibition mechanisms, ACE inhibition was evaluated by monitoring the effects of different concentrations of substrate […]. The reaction mixture consisted of different concentrations of FAPGG (0.1–0.5 mM), as the substrate, and ACE in 50 mM Tris–HCl buffer. Several concentrations of each sample were added to the reaction mixture. The tested concentrations of coumarins are as follows: 12 (0, 2.5, 5, and 10 µM); 13 (0, 2.5, 5, and 10 µM); 15 (0, 1.28, 2.56, and 5.12 µM). Inhibition constants (Ki) were determined by interpretation of the secondary plots from Lineweaver–Burk plot.

SMILES	IC50 (ACE [1]) [µM]	also measured
O=C(O)c1ccc(O)cc1 [Compound 6, para-hydroxy benzoic acid]	492.4 ± 0.89	–
CC(C)(OC1OC(CO)C(O)C(O)C1O)C1Cc2cc3ccc(=O)oc3c(O)c2O1 (stereo not drawn) [Compound 3, isorutarine]	68.36 ± 0.27	–
O=C(O)c1cc2ccc(=O)oc2cc1O [Compound 5, umbelliferone 6-carboxylic acid]	156.1 ± 0.41	ACE inhibitory activity (in words) (ACE [2]): promising ACE inhibitory activity; Inhibitory effect on ACE (in words) (ACE [1]): moderate inhibitory effects
O=c1ccc2ccc(O)cc2o1 [Compound 4, umbelliferone]	–	ACE inhibitory activity (in words) (ACE [2]): promising ACE inhibitory activity
CC(C)c1cc2cc3ccc(=O)oc3cc2o1 [Compound 8, 2′-isopropyl psoralene]	311.1 ± 0.33	Inhibitory effect on ACE (in words) (ACE [1]): weak activity
CC(C)(O[C@@H]1O[C@H](CO)[C@@H](O)[C@H](O)[C@H]1O)[C@H]1Cc2cc3ccc(=O)oc3cc2O1 [Compound 1, nodakenin]	112.5 ± 0.71	ACE inhibitory activity (in words) (ACE [2]): promising ACE inhibitory activity
CC(C)(O)[C@H]1Cc2cc3ccc(=O)oc3cc2O1 [Compound 2, nodakenetin]	102.3 ± 0.29	–
CC1(C)Oc2cc3oc(=O)ccc3cc2C[C@@H]1O [Compound 11, decursinol]	18.3 ± 0.61	–

More lines, main results first:

IC50 (ACE [1]) [µM]	SMILES	also measured
71.48 ± 0.47	C/C=C(/C)C(=O)O[C@@H]1c2c(ccc3ccc(=O)oc23)OC(C)(C)[C@@H]1OC(C)=O [Compound 10, cis-3′-acetyl-4′-angeloylkhellactone]	–
15.2 ± 0.39	C/C=C(/C)C(=O)O[C@H]1[C@H](OC(C)=O)c2cc3ccc(=O)oc3cc2OC1(C)C [Compound 17, Pd-C-III]	–
6.75 ± 0.43	CC(C)=CC(=O)O[C@H]1[C@H](O)c2cc3ccc(=O)oc3cc2OC1(C)C [Compound 13, Pd-C-I]	Type of Inhibition (ACE [3]): competitive inhibition; Ki (ACE [3]): 2.35 µM
89.36 ± 0.38	C/C=C(\C)C(=O)O[C@@H]1c2c(ccc3ccc(=O)oc23)OC(C)(C)[C@@H]1OC(C)=O [Compound 9, 3′(R)-O-acetyl-4′(S)-O-tigloylkhellactone]	–
16 ± 0.92	CO[C@@H]1c2cc3ccc(=O)oc3cc2OC(C)(C)[C@H]1OC(=O)C=C(C)C [Compound 18, 4′-methoxy Pd-C-I]	–
4.68 ± 0.22	CC1(C)Oc2cc3oc(=O)ccc3cc2[C@@H](O)[C@@H]1O [Compound 15, (+)-trans-decursidinol]	Type of Inhibition (ACE [3]): competitive inhibition; Ki (ACE [3]): 0.59 µM
9.41 ± 0.69	C/C=C(/C)C(=O)O[C@H]1[C@H](O)c2cc3ccc(=O)oc3cc2OC1(C)C [Compound 12, 4′-hydroxy Pd-C-III]	Type of Inhibition (ACE [3]): competitive inhibition; Ki (ACE [3]): 1.98 µM
20 ± 0.79	CC(C)=CC(=O)O[C@@H]1c2cc3ccc(=O)oc3cc2OC(C)(C)[C@H]1OC(=O)C=C(C)C [Compound 14, decursidin]	–
12.4 ± 0.27	CC(C)=CC(=O)O[C@@H]1c2cc3ccc(=O)oc3cc2OC(C)(C)[C@H]1O [Compound 16, Pd-C-II]	–
